In ChEMBL document CHEMBL4673372, “1,2,3-triazole-thiazole hybrids: Synthesis, in vitro antimicrobial activity and antibiofilm studies” (Bioorg Med Chem Lett, 2021):
Converted amounts (≈) assume the structure as drawn. Each block holds one molecule with its values, some of them ahead of it.

Key:
[1] = Selectivity index, ratio of CC50 for human THP-1 cells to MIC for Staphylococcus aureus MTCC 96; format: toxicity
[2] = Cytotoxicity against human THP-1 cells; format: cell-based
THP-1 [3] = test: Cytotoxicity against human THP-1 cells assessed as cell damage at 200 uM by LDH assay; format: cell-based; conditions: thp-1, 200 µM
THP-1 [4] = test: Cytotoxicity against human THP-1 cells assessed as reduction in cell viability at 200 uM by MTT assay; format: cell-based; conditions: thp-1, 200 µM
Candida albicans [5] = test: Inhibition of biofilm formation in Candida albicans MTCC 3017 incubated for 24 hrs by crystal violet staining based microtiter plate method; format: functional, organism-based; conditions: Candida albicans, MTCC 3017, 24 h; read-out: IC50
Pseudomonas aeruginosa [6] = test: Inhibition of biofilm formation in Pseudomonas aeruginosa MTCC 2453 incubated for 24 hrs by crystal violet staining based microtiter plate method; format: functional, organism-based
Escherichia coli [7] = test: Inhibition of biofilm formation in Escherichia coli MTCC 739 incubated for 24 hrs by crystal violet staining based microtiter plate method; format: functional, organism-based
Raoultella planticola [8] = test: Inhibition of biofilm formation in Klebsiella planticola MTCC 530 incubated for 24 hrs by crystal violet staining based microtiter plate method; format: functional, organism-based
Micrococcus luteus [9] = test: Inhibition of biofilm formation in Micrococcus luteus MTCC 2470 incubated for 24 hrs by crystal violet staining based microtiter plate method; format: functional, organism-based
Bacillus subtilis [10] = test: Inhibition of biofilm formation in Bacillus subtilis MTCC 121 incubated for 24 hrs by crystal violet staining based microtiter plate method; format: functional, organism-based
Staphylococcus aureus [11] = test: Inhibition of biofilm formation in Staphylococcus aureus MLS16 MTCC 2940 incubated for 24 hrs by crystal violet staining based microtiter plate method; format: functional, organism-based
Staphylococcus aureus [12] = test: Inhibition of biofilm formation in Staphylococcus aureus […] incubated for 24 hrs by crystal violet staining based microtiter plate method; format: functional, organism-based
Pichia sporocuriosa [13] = test: Antifungal activity against Issatchenkia hanoiensis MTCC 4755; format: functional
Pichia kudriavzevii [14] = test: Antifungal activity against Candida krusei MTCC 3020; format: functional
Nakaseomyces glabratus [15] = test: Antifungal activity against Candida glabrata MTCC 3019; format: functional
[Candida] aaseri [16] = Antifungal activity against Candida aaseri MTCC 1962; format: functional; conditions: Yamadazyma aaseri
Candida parapsilosis [17] = test: Antifungal activity against Candida parapsilosis MTCC 1745; format: functional; conditions: Lodderomyces parapsilosis
Candida albicans [18] = test: Antifungal activity against Candida albicans MTCC 4748; format: functional
Candida albicans [19] = test: Antifungal activity against Candida albicans MTCC 3958; format: functional
Candida albicans [20] = test: Antifungal activity against Candida albicans MTCC 3018; format: functional
Candida albicans [21] = test: Antifungal activity against Candida albicans MTCC 1637; format: functional
Candida albicans [22] = test: Antifungal activity against Candida albicans MTCC 854; format: functional
Nakaseomyces glabratus [23] = test: Fungicidal activity against Candida glabrata MTCC 3019; format: functional
[Candida] aaseri [24] = Fungicidal activity against Candida aaseri MTCC 1962; format: functional; conditions: Yamadazyma aaseri
Candida albicans [25] = test: Fungicidal activity against Candida albicans MTCC 1637; format: functional
Candida albicans [26] = test: Fungicidal activity against Candida albicans MTCC 3018; format: functional
Candida albicans [27] = test: Fungicidal activity against Candida albicans MTCC 183; format: functional
Pseudomonas aeruginosa [28] = test: Bactericidal activity against Pseudomonas aeruginosa MTCC 2453; format: functional
Raoultella planticola [29] = test: Bactericidal activity against Klebsiella planticola MTCC 530; format: functional
Escherichia coli [30] = test: Bactericidal activity against Escherichia coli MTCC 739; format: functional
Micrococcus luteus [31] = test: Bactericidal activity against Micrococcus luteus MTCC 2470; format: functional
Bacillus subtilis [32] = test: Bactericidal activity against Bacillus subtilis MTCC 121; format: functional
Staphylococcus aureus [33] = test: Bactericidal activity against Staphylococcus aureus MLS16 MTCC 2940; format: functional
Staphylococcus aureus [34] = test: Bactericidal activity against Staphylococcus aureus MTCC 96; format: functional
Candida albicans [35] = test: Antifungal activity against Candida albicans MTCC 227; format: functional
Candida albicans [36] = test: Antifungal activity against Candida albicans MTCC 183; format: functional
Pseudomonas aeruginosa [37] = test: Antibacterial activity against Pseudomonas aeruginosa MTCC 2453 assessed as inhibition of bacterial growth by microtiter broth dilution method; format: functional
Escherichia coli [38] = test: Antibacterial activity against Escherichia coli MTCC 739 assessed as inhibition of bacterial growth by microtiter broth dilution method; format: functional
Raoultella planticola [39] = test: Antibacterial activity against Klebsiella planticola MTCC 530 assessed as inhibition of bacterial growth by microtiter broth dilution method; format: functional
Micrococcus luteus [40] = test: Antibacterial activity against Micrococcus luteus MTCC 2470 assessed as inhibition of bacterial growth by microtiter broth dilution method; format: functional
Bacillus subtilis [41] = test: Antibacterial activity against Bacillus subtilis MTCC 121 assessed as inhibition of bacterial growth by microtiter broth dilution method; format: functional
Staphylococcus aureus [42] = test: Antibacterial activity against Staphylococcus aureus MLS16 MTCC 2940 assessed as inhibition of bacterial growth by microtiter broth dilution method; format: functional
Staphylococcus aureus [43] = test: Antibacterial activity against Staphylococcus aureus MTCC 96 assessed as inhibition of bacterial growth by microtiter broth dilution method; format: functional
Pichia sporocuriosa [44] = test: Fungicidal activity against Issatchenkia hanoiensis MTCC 4755; format: functional
Pichia kudriavzevii [45] = test: Fungicidal activity against Candida krusei MTCC 3020; format: functional
Candida parapsilosis [46] = test: Fungicidal activity against Candida parapsilosis MTCC 1745; format: functional; conditions: Lodderomyces parapsilosis
Candida albicans [47] = test: Fungicidal activity against Candida albicans MTCC 3958; format: functional
Candida albicans [48] = test: Fungicidal activity against Candida albicans MTCC 4748; format: functional
Candida albicans [49] = test: Fungicidal activity against Candida albicans MTCC 227; format: functional
Candida albicans [50] = test: Fungicidal activity against Candida albicans MTCC 854; format: functional

MIC (Pichia sporocuriosa [13]): > 190 µM
MIC (Pichia kudriavzevii [14]): > 190 µM
MIC (Nakaseomyces glabratus [15]): 5.9 µM (≈ 3.89 µg/mL)
MIC ([Candida] aaseri [16]): 5.9 µM (≈ 3.89 µg/mL)
MIC (Candida parapsilosis [17]): > 190 µM
MIC (Candida albicans [18]): > 190 µM
MIC (Candida albicans [19]): > 190 µM
MIC (Candida albicans [20]): 5.9 µM (≈ 3.89 µg/mL)
MIC (Candida albicans [21]): 5.9 µM (≈ 3.89 µg/mL)
MIC (Candida albicans [22]): > 190 µM
MIC (Candida albicans [35]): > 190 µM
MIC (Candida albicans [36]): 11.8 µM (≈ 7.78 µg/mL)
MIC (Pseudomonas aeruginosa [37]): 5.9 µM (≈ 3.89 µg/mL)
MIC (Escherichia coli [38]): 5.9 µM (≈ 3.89 µg/mL)
MIC (Micrococcus luteus [40]): 5.9 µM (≈ 3.89 µg/mL)
MIC (Bacillus subtilis [41]): 5.9 µM (≈ 3.89 µg/mL)
MIC (Staphylococcus aureus [42]): 5.9 µM (≈ 3.89 µg/mL)
MIC (Staphylococcus aureus [43]): 5.9 µM (≈ 3.89 µg/mL)
Compound: COc1ccc(-n2cc(COc3ccc(/C=N/Nc4nc(-c5cc6cc(Br)cc(OC)c6oc5=O)cs4)cc3)nn2)cc1
selectivity ratio [1]: 5.14
CC50 [2]: 30.3 µM
Activity (THP-1 [3]): Toxic
Activity (THP-1 [4]): Toxic
IC50 (Candida albicans [5]): 40.6 µM
IC50 (Pseudomonas aeruginosa [6]; Pseudomonas aeruginosa, MTCC 2453, 24 h, read-out: IC50): 24.7 µM
IC50 (Escherichia coli [7]; Escherichia coli, MTCC 739, 24 h, read-out: IC50): 21.9 µM
IC50 (Raoultella planticola [8]; Klebsiella planticola, MTCC 530, 24 h, read-out: IC50): 22.2 µM
IC50 (Micrococcus luteus [9]; Micrococcus luteus, MTCC 2470, 24 h, read-out: IC50): 47.8 µM
IC50 (Bacillus subtilis [10]; Bacillus subtilis, MTCC 121, 24 h, read-out: IC50): 15.9 µM
IC50 (Staphylococcus aureus [11]): Not Active
IC50 (Staphylococcus aureus [12]; Staphylococcus aureus, MTCC 92, 24 h, read-out: IC50): 12 µM
MFC (Nakaseomyces glabratus [23]): 11.8 µM (≈ 7.78 µg/mL)
MFC ([Candida] aaseri [24]): 11.8 µM (≈ 7.78 µg/mL)
MFC (Candida albicans [25]): 11.8 µM (≈ 7.78 µg/mL)
MFC (Candida albicans [26]): 11.8 µM (≈ 7.78 µg/mL)
MFC (Candida albicans [27]): 23.7 µM (≈ 15.6 µg/mL)
MBC (Pseudomonas aeruginosa [28]): 11.8 µM (≈ 7.78 µg/mL)
MBC (Raoultella planticola [29]): 5.9 µM (≈ 3.89 µg/mL)
MBC (Escherichia coli [30]): 11.8 µM (≈ 7.78 µg/mL)
MBC (Micrococcus luteus [31]): 11.8 µM (≈ 7.78 µg/mL)
MBC (Bacillus subtilis [32]): 11.8 µM (≈ 7.78 µg/mL)
MBC (Staphylococcus aureus [33]): 11.8 µM (≈ 7.78 µg/mL)
MBC (Staphylococcus aureus [34]): 11.8 µM (≈ 7.78 µg/mL)
MIC (Raoultella planticola [39]): 2.8 µM (≈ 1.85 µg/mL)

MIC (Pichia sporocuriosa [13]): 18.7 µM (≈ 7.78 µg/mL)
MIC (Pichia kudriavzevii [14]): 18.7 µM (≈ 7.78 µg/mL)
MIC (Nakaseomyces glabratus [15]): 18.7 µM (≈ 7.78 µg/mL)
MIC ([Candida] aaseri [16]): 18.7 µM (≈ 7.78 µg/mL)
MIC (Candida parapsilosis [17]): 18.7 µM (≈ 7.78 µg/mL)
MIC (Candida albicans [18]): 18.7 µM (≈ 7.78 µg/mL)
MIC (Candida albicans [19]): 18.7 µM (≈ 7.78 µg/mL)
MIC (Candida albicans [20]): 18.7 µM (≈ 7.78 µg/mL)
MIC (Candida albicans [21]): 18.7 µM (≈ 7.78 µg/mL)
MIC (Candida albicans [22]): 18.7 µM (≈ 7.78 µg/mL)
MIC (Candida albicans [35]): 18.7 µM (≈ 7.78 µg/mL)
MIC (Candida albicans [36]): 18.7 µM (≈ 7.78 µg/mL)
Compound: Clc1ccc(COC(Cn2ccnc2)c2ccc(Cl)cc2Cl)c(Cl)c1 (stereo not given) [MICONAZOLE]
IC50 (Candida albicans [5]): 2.5 µM
IC50 (Pseudomonas aeruginosa [6]): Not Active
IC50 (Escherichia coli [7]): Not Active
IC50 (Raoultella planticola [8]): Not Active
IC50 (Micrococcus luteus [9]): Not Active
IC50 (Bacillus subtilis [10]): Not Active
IC50 (Staphylococcus aureus [11]): Not Active
IC50 (Staphylococcus aureus [12]): Not Active
MFC (Pichia sporocuriosa [44]): 18.7 µM (≈ 7.78 µg/mL)
MFC (Nakaseomyces glabratus [23]): 18.7 µM (≈ 7.78 µg/mL)
MFC (Pichia kudriavzevii [45]): 18.7 µM (≈ 7.78 µg/mL)
MFC (Candida parapsilosis [46]): 18.7 µM (≈ 7.78 µg/mL)
MFC ([Candida] aaseri [24]): 18.7 µM (≈ 7.78 µg/mL)
MFC (Candida albicans [47]): 18.7 µM (≈ 7.78 µg/mL)
MFC (Candida albicans [48]): 18.7 µM (≈ 7.78 µg/mL)
MFC (Candida albicans [25]): 18.7 µM (≈ 7.78 µg/mL)
MFC (Candida albicans [26]): 18.7 µM (≈ 7.78 µg/mL)
MFC (Candida albicans [27]): 18.7 µM (≈ 7.78 µg/mL)
MFC (Candida albicans [49]): 18.7 µM (≈ 7.78 µg/mL)
MFC (Candida albicans [50]): 18.7 µM (≈ 7.78 µg/mL)
